{"source": "patent US7648961B2", "about": "“Use of somatostatin or one of its analogues for preparing a medicament intended to regulate the ovarian follicular reserve in non-menopausal women” (Preglem S.A., priority 2003, dated 2010)", "key": {"[1]": {"test_system": "primordial follicles of ovarian cortex", "assay": "Culture of ewe ovarian cortex fragments for 10 days: start of growth of primordial follicles", "type": "cell-based", "conditions": "for start of growth of the primordial follicles: ewe ovarian cortex, 10 days of culture, versus control fragments", "method": "Ovaries of adult ewes are collected immediately after slaughter. The ovaries are placed in an organ transport medium without serum (X-vivo, Bio Whittaker, Walkersville, Md., USA) at 10° C. and transported to the laboratory. Approximately 1 h after removal, the cortex is isolated from the medulla then fractionated into slices of 2 mm thickness (1 cm^2, average weight of 212 mg) after rinsing in new X-vivo. The cortex fragments are cultured in an oven under 5% oxygen for 10 days in well plates in the presence of DMEM. The medium is changed every 2 days.\nThe procedure used is the same as for Example 1, except that the somatostatin is replaced with one of its agonist analogues, namely the synthetic peptide of formula c[Tic-Tyr-DTrp-Lys-Abu-Phe] (hereafter AG1 peptide).\nThe procedure used is the same as for Example 1, except that the somatostatin is replaced by one of its antagonist analogues, namely the synthetic peptide of formula Cpa-c(DCys-3-Pal-DTrp-NMeLys-Thr-Cys)-2-Nal-NH2 (hereafter ANT1 peptide).\n(§1) FIG. 1 represents the proportions of dormant follicles during a period of 10 days of culture of an ovarian cortex of a ewe in the presence or absence (control) of somatostatin (SST14). These proportions are measured for each sample tested on the day of the start of the experiment (D0), on the 4th day (D4), on the 7th day (D7) and on the 10th day (D10).\nas §1, with “FIG. 2” for “FIG. 1”, “of primary” for “of dormant”\nFIG. 3 represents the proportions of primordial, intermediate, primary and secondary follicles during a period of 10 days of culture of an ovarian cortex of a ewe in the absence of agonist or somatostatin antagonist analogue. These proportions are measured for each sample tested on the day of the start of the experiment (D0), on the 4th day (D4), on the 7th day (D7) and on the 10th day (D10).\n(§2) FIG. 4 represents the proportions of primordial, intermediate, primary and secondary follicles during a period of 10 days of culture of an ovarian cortex of a ewe in the presence or absence of a somatostatin agonist analogue, the synthetic peptide of formula c[Tic-Tyr-DTrp-Lys-Abu-Phe] (AG1 peptide). These proportions are measured for each sample tested on the day of the start of the experiment (D0), on the 4th day (D4), on the 7th day (D7) and on the 10th day (D10).\nas §2, with “FIG. 5” for “FIG. 4”, “somatostatin antagonist” for “somatostatin agonist”, “formula Cpa-c(DCys-3-Pal-DTrp-NMeLys-Thr-Cys)-2-Nal-NH2 (ANT1” for “formula c[Tic-Tyr-DTrp-Lys-Abu-Phe] (AG1”"}, "[2]": {"test_system": "ovarian follicles", "assay": "Envisaged typical clinical situations of use in patients", "type": "in vivo, human", "conditions": "patient with polycystic ovary syndrome, 120 mg/month, 4th month of treatment, envisaged situation", "description": "The following typical situations for a use according to the invention could however be envisaged: • A patient of approximately 20 to 25 years of age (for example) has a partial Turner syndrome through X chromosome microdeletion. Their ovarian function is apparently normal with regular ovulatory cycles. Their FSH serum level is slightly higher during the luteal-follicular transition period (for example FSH=approximately 9.2 IU/litre). […] Considering the high risk that they will have early menopause, the patient is treated with lanreotide acetate at a dose of 120 mg/months (Somatuline® Autogel® 120 mg, Beaufour Ipsen Pharma, France). The treatment is discontinued after several years when the patient wishes to conceive. • A patient of approximately 35 to 40 years of age has had primary sterility for several years. Assessment of the couple produced a diagnosis of sterility of tubal origin, very probably resulting from a history of peritonitis. The menstrual cycles are ovulatory and the FSH serum level is slightly higher during the luteal-follicular transition period (for example FSH=approximately 11.4 IU/L). […] A diagnosis of reduction of the ovarian reserve is made. […] During this treatment, the number of antral follicles present in each ovary is assessed by ultrasound at the start of each menstrual cycle. […]"}, "[3]": {"conditions": "AG1 peptide at 10^-9 M, D0-D10, FIG. 4"}}, "note": "Where a SMILES comes first, the peptide text is derived from it. [ ]: non-standard residue; d: D form. Tic = O=C(O)[C@@H]1Cc2ccccc2CN1; Abu = CC[C@H](N)C(=O)O", "data": [{"smiles": "CC[C@@H]1NC(=O)[C@H](CCCCN)NC(=O)[C@@H](Cc2c[nH]c3ccccc23)NC(=O)[C@H](Cc2ccc(O)cc2)NC(=O)[C@@H]2Cc3ccccc3CN2C(=O)[C@H](Cc2ccccc2)NC1=O", "note": "[AG1 peptide, c[Tic-Tyr-DTrp-Lys-Abu-Phe]] (cyclo([Tic]Y[dW]K[Abu]F))", "values": [{"measurement": "number of primary follicles", "setting": "[1]; [3]", "value": "absence of increase in the number of primary follicles"}, {"measurement": "number of primordial follicles over time", "setting": "[1]; [3]", "value": "maintenance over time of the number of primordial follicles"}, {"measurement": "start of growth of the primordial follicles", "setting": "[1]; AG1 peptide at 10^-9 M", "value": "very significantly inhibits the start of growth of the primordial follicles"}]}, {"smiles": "C[C@H](N)C(=O)NCC(=O)N[C@H]1CSSC[C@@H](C(=O)O)NC(=O)[C@H](CO)NC(=O)[C@H]([C@@H](C)O)NC(=O)[C@H](Cc2ccccc2)NC(=O)[C@H]([C@@H](C)O)NC(=O)[C@H](CCCCN)NC(=O)[C@H](Cc2c[nH]c3ccccc23)NC(=O)[C@H](Cc2ccccc2)NC(=O)[C@H](Cc2ccccc2)NC(=O)[C@H](CC(N)=O)NC(=O)[C@H](CCCCN)NC1=O", "note": "[SST14]", "values": [{"measurement": "number of primordial follicles over time", "setting": "[1]; SST14 at 10^-9 M to 10^-6 M, D0-D10, FIG. 1", "value": "maintenance over time of the number of primordial follicles"}, {"measurement": "number of primary follicles", "setting": "[1]; SST14 at 10^-9 M to 10^-6 M, D0-D10, FIG. 2", "value": "absence of increase in the number of primary follicles"}, {"measurement": "start of growth of the primordial follicles", "setting": "[1]; SST14 at 10^-9 M to 10^-6 M", "value": "very significantly inhibits the start of growth of the primordial follicles"}]}, {"smiles": "CC(C)[C@@H]1NC(=O)[C@H](CCCCN)NC(=O)[C@@H](Cc2c[nH]c3ccccc23)NC(=O)[C@H](Cc2ccc(O)cc2)NC(=O)[C@@H](NC(=O)[C@H](N)Cc2ccc3ccccc3c2)CSSC[C@@H](C(=O)N[C@H](C(N)=O)[C@@H](C)O)NC1=O", "note": "[lanreotide acetate]", "values": [{"measurement": "ovarian volume and number of antral follicles (ultrasound)", "setting": "[2]", "value": "reduction in ovarian volume and in the number of antral follicles"}]}]}
